Measured values taken from patent publication US10030025B2, “Substituted [1,2,4]triazolo[4,3-a]pyrazines as selective NK-3 receptor antagonists” (EUROSCREEN SA, priority 2013, dated 2018).

Assays:
[1] = tested on: circulating levels of luteinizing hormone (LH); experiment: Castrated male rat model, circulating luteinizing hormone (LH); type: in vivo; settings: castrated male SD rats, single oral dose less than or equal to 30 mg/kg, p<0.05
Procedure: Castrated male rat model to assess the effect of compound of invention on circulating levels of luteinizing hormone (LH)
The effect of compounds of the invention to inhibit luteinizing hormone (LH) secretion is determined by the following biological studies.
In humans and rodents, castration is well-precedented to permit heightened, persistent GnRH signaling and consequent elevation of circulating LH. Thus, a castrated rat model is used to provide a broad index for measurement of LH inhibition as a marker of test compound inhibition of the GnRH signaling pathway.
Castrated adult male Sprague-Dawley (SD) rats (150-175 g) were purchased from Janvier (St Berthevin, France). All animals were housed 2 per cage in a temperature-controlled room (22±2° C.) and 50±5% relative humidity with a 12 hour/12 hour light/dark cycles (lights off at 6h00 pm). The animals were allowed 3 weeks of postoperative recovery prior to study. Animals were handled on a daily basis. Standard diet and tap water were provided ad libitum. Animal cage litters were changed once a week. On the study day, animals were acclimated to the procedure room for a period of one hour prior to the initiation of the experiment.
Compounds of the invention were formulated in 0.5% methyl cellulose.
After basal sampling (T0) a single dose of compounds of the invention or vehicle was administrated orally to rats. Blood samples were then collected at several time points post dosing (45, 90, 150, 300 and 420 minutes). Blood samples were obtained via tail vein bleed, drawn into EDTA-containing tubes and centrifuged immediately. Plasma samples were collected and stored in a −80° C. freezer until assayed. Serum LH levels were determined using radioimmunoassay kit from RIAZEN—Rat LH, Zentech (Liège, Belgium). Baseline was defined as the initial basal blood sample.

[2] = tested on: plasma estradiol levels; experiment: Estradiol circulating level in female rats; type: in vivo, rat; settings: adult female rats, 10 mg/kg b.i.d. oral, 10 days, two consecutive estrous cycles
Procedure: The aim of this study was to evaluate the effect of compounds of the invention on plasma estradiol levels following oral administration at 10 mg/kg (b.i.d.) for a period of 10 days in female rats.
Two groups of adult, female rats (Sprague-Dawley, ˜320 g) were treated in-phase with their individual estrous cycles. Thus, treatment was started in the proestrus phase (coincident with peak estradiol levels, as shown on Day 1 in FIG. 3) and rats were dosed twice daily (˜9h30 and 17h30) by oral administration either with a compound of the invention at 10 mg/kg or with the vehicle for the control group. Compounds of the invention were prepared in a dose formulation of pyrogen-free water with 0.5% methylcellulose. Estradiol levels were determined for all groups by ELISA performed on plasma samples derived from blood collections taken at 30 minutes before the daily, 9h30 test article administration on all days presented in FIG. 3.

[3] = tested on: body temperature; experiment: Thermoregulation in ovariectomized (OVX) ewes; type: in vivo, ewe; settings: 1 mg/kg intravenous bolus
Text: After 4 months recovery, animals were acclimatised to housing in single pens for a period of 7 days with ad libitum access to water and […] lucerne hay. One day prior to experimentation, the animals received a jugular vein cannula ([…], Tuta Laboratories, Lane Cove, Australia). The cannulae were kept patent with heparinised saline. On the day of the experiment, compound no 5 of the present invention was formulated in physiological saline with 9% 2-hydroxypropyl-β-cyclodextrin at a concentration of 2 mg/mL. Compound no 5 (1 mg/kg, N=5) or vehicle (N=5) was administered at 11h00 by intravenous bolus injection at a dose volume of 0.5 mL/kg through the jugular cannula and the injected material was flushed into the animal with 5 mL of heparinised saline. Animals were fed at 12h00. Rectal temperatures were monitored with a probe at hourly intervals throughout the experiment, starting at 7h40 and concluding at 15h40. […] However, this pyrogenic response to feeding in ovarectomized ewes was not observed in any animals treated with compound no 5. […] Graphical data presented as mean±SEM for vehicle-treated versus compound no 5-treated ewes (N=5/group). Statistical analyses performed by 2-way ANOVA followed by Sidak's Multiple Comparisons Test between treatment groups at the indicated time interval, *p<0.05.

[4] = tested on: plasma testosterone; experiment: Plasma testosterone in gonad intact male rats; type: in vivo, rat; settings: gonad intact male SD rats, 3 mg/kg single oral administration, vs vehicle, over the test period
Procedure: The study was designed to evaluate the effect of compounds of the invention on testosterone circulating levels following oral administration at 3 mg/kg on SD gonad intact male rats.
Two groups of non-fasted rats (male, Sprague-Dawley, 200 to 225 g; n=4 rats/group) with jugular vein cannulation, were dosed via a single oral administration of compounds of the invention at 3 mg/kg. The control group was dosed with the vehicle. Compounds of the invention were prepared in a dose formulation of pyrogen-free water with 0.5% methylcellulose. Blood samples were collected via the catheter implanted in the jugular vein at pre-determined intervals using EDTA-3K as anti-coagulant. Samples were chilled and rapidly processed by centrifugation to obtain corresponding plasma samples. Testosterone hormone levels were determined by RIA performed on plasma samples collected for all the groups at 5 minutes before administration (basal time), and at 45, 90, 150, 300, 480 minutes and 24 hours after dosing.

Compound | Effect on circulating LH levels [1] | other results
Cc1nsc(-c2nnc3n2CCN(C(=O)c2ccc(Cl)c(Cl)c2)[C@@H]3C)n1 [Compound 1, (R)-(3,4-dichlorophenyl)(8-methyl-3-(3-methyl-1,2,4-thiadiazol-5-yl)-5,6-dihydro-[1,2,4]triazolo[4,3-a]pyrazin-7(8H)-yl)methanone] | significantly suppressed circulating LH levels | –
CCc1nsc(-c2nnc3n2CCN(C(=O)c2ccc(F)cc2)[C@@H]3C)n1 [Compound 2, (R)-(3-(3-ethyl-1,2,4-thiadiazol-5-yl)-8-methyl-5,6-dihydro-[1,2,4]triazolo[4,3-a]pyrazin-7(8H)-yl)(4-fluorophenyl)methanone] | significantly suppressed circulating LH levels | –
Cc1nsc(-c2nnc3n2CCN(C(=O)c2ccc(Cl)c(F)c2)[C@@H]3C)n1 [Compound 4, (R)-(4-chloro-3-fluorophenyl)(8-methyl-3-(3-methyl-1,2,4-thiadiazol-5-yl)-5,6-dihydro-[1,2,4]triazolo[4,3-a]pyrazin-7(8H)-yl)methanone] | significantly suppressed circulating LH levels | –
Cc1nsc(-c2nnc3n2CCN(C(=O)c2ccc(F)cc2)[C@@H]3C)n1 [Compound 5, (R)-(4-fluorophenyl)(8-methyl-3-(3-methyl-1,2,4-thiadiazol-5-yl)-5,6-dihydro-[1,2,4]triazolo[4,3-a]pyrazin-7(8H)-yl)methanone] | significantly suppressed circulating LH levels | Effect on estradiol levels [2]: significantly decreased estradiol levels; Pyrogenic response to feeding [3]: not observed; Effect on plasma testosterone level [4]: significantly suppressed plasma testosterone level
Cc1nsc(-c2nnc3n2CCN(C(=O)c2ccc(F)c(F)c2F)[C@@H]3C)n1 [Compound 8, (R)-(8-methyl-3-(3-methyl-1,2,4-thiadiazol-5-yl)-5,6-dihydro-[1,2,4]triazolo[4,3-a]pyrazin-7(8H)-yl)(2,3,4-trifluorophenyl)methanone] | significantly suppressed circulating LH levels | –
Cc1nsc(-c2nnc3n2CCN(C(=O)c2ccc(F)c(F)c2)[C@@H]3C)n1 [Compound 9, (R)-(3,4-difluorophenyl)(8-methyl-3-(3-methyl-1,2,4-thiadiazol-5-yl)-5,6-dihydro-[1,2,4]triazolo[4,3-a]pyrazin-7(8H)-yl)methanone] | significantly suppressed circulating LH levels | –
CCc1noc(-c2nnc3n2CCN(C(=O)c2ccc(F)cc2)[C@@H]3C)n1 [Compound 13, (R)-(3-(3-ethyl-1,2,4-oxadiazol-5-yl)-8-methyl-5,6-dihydro-[1,2,4]triazolo[4,3-a]pyrazin-7(8H)-yl)(4-fluorophenyl)methanone] | significantly suppressed circulating LH levels | –
Cc1nsc(-c2nnc3n2CCN(C(=O)c2ccccc2)[C@@H]3C)n1 [Compound 20, (R)-(8-methyl-3-(3-methyl-1,2,4-thiadiazol-5-yl)-5,6-dihydro-[1,2,4]triazolo[4,3-a]pyrazin-7(8H)-yl)(phenyl)methanone] | significantly suppressed circulating LH levels | –
CCc1noc(-c2nnc3n2CCN(C(=O)c2ccc(-c4cccs4)cc2)[C@@H]3C)n1 [Compound 30, (R)-(3-(3-ethyl-1,2,4-oxadiazol-5-yl)-8-methyl-5,6-dihydro-[1,2,4]triazolo[4,3-a]pyrazin-7(8H)-yl)(4-(thiophen-2-yl)phenyl)methanone] | significantly suppressed circulating LH levels | –
